# Test results reported in patent US8455510B2.
# Read-outs that look alike come from different tables or passages of the source.
# Legend:
# [1] = Immunosuppressive activity assay: cytotoxicity; type: cell-based
# [2] = MTT cytotoxicity on mouse spleen lymphocytes; type: cell-based, BALB/c mice; details: BALB/c, MTT assay
# Method: 3-(4,5-dimethylthylthiazol-2-yl)-2,5-diphenyl tetrazolium bromide (MTT) assay was adopted to measure the effect of the in vitro administered compound on the activity of the spleen lymphocytes of normal mice, and evaluate the cytotoxicity of the compound.
# They were dissolved in DMSO before testing to prepare a stock solution, which was diluted to a desired concentration with the medium when use.
# 100 μl cell suspension of mouse spleen lymphocytes was inoculated on a 96-well plate (4×10^5 per well), and the compound at different concentrations was added therein, including additional solvent control or medium background control, wherein, the total volume of each well was 200 μl. After the 96-well plate was placed in an incubator at 37° C. with 5% CO2 for 48 hours, 20 μl (5 mg/ml) of MTT solution was added 6 to 7 hours before the end of incubation. Then after the incubation was completed, 100 μl of supernatant was removed for each well, and 100 μl of […] was added therein. After the 96-well plate was placed in the incubator for 6 to 7 hours, OD values were determined on an ELISA Reader at the wavelength of 570 nm.
# [3] = tested on: normal mouse spleen B lymphocytes induced by LPS; assay: 3H-TdR incorporation, LPS-induced B lymphocyte proliferation; type: cell-based, BALB/c mice; details: read-out: IC50, proliferation of B lymphocytes induced by LPS
# Method: ^3H-thymidine incorporation was adopted to measure the effect of the in vitro administered compound on the proliferation function of the spleen lymphocytes of normal mice induced by a mixed culture of mitogen/allogeneic mouse spleen lymphocytes, and evaluate the in vitro immunosuppressive activity of the compound.
# Measurement of the effects of compounds on the proliferation function of mouse spleen lymphocytes induced by mitogen by ^3H-TdR incorporation: 100 μl cell suspension of mouse spleen lymphocytes was inoculated on a 96-well plate (4×10^5 per well), followed by addition of 50 μl of ConA (final concentration: 5 μg/ml), 50 μl of LPS (final concentration: […]) or 50 μl of compound at different concentrations. The total volume of each well was 200 μl. The test was carried out in triplicate wells for each concentration, and included control wells without ConA/LPS or the compound. After the 96-well plate was placed in an incubator at 37° C. with 5% CO2 for 48 hours, 25 μl of ^3H-thymidine (10 μCi/ml) was added in each well 8 hours before the end of incubation. […] The amount of ^3H-TdR incorporated in cell DNA was determined by a Beta cell counter (MicroBeta Trilux, PerkinElmer), and the cell proliferation was represented as a cpm value.
# [4] = tested on: allogeneic antigen-induced mouse spleen lymphocytes; assay: Mixed lymphocyte culture, 3H-TdR incorporation; type: cell-based, C57BL/6 and BALB/C mice; details: for inhibition at 0.0001342 µM / inhibition at 0.0003355 µM / inhibition at 0.0008389 µM / inhibition at 0.0020972 µM / inhibition at 0.0052429 µM / inhibition at 0.013107 µM / inhibition at 0.032768 µM / inhibition at 0.0819 µM / inhibition at 0.2048 µM / inhibition at 0.512 µM / inhibition at 1.28 µM / inhibition at 3.2 µM / inhibition at 8 µM / inhibition at 20 µM: Mus musculus, Lymphocyte
# Method: Preparation of Stimulator Cells: a Cell Suspension of Balb/C Mouse Spleen Lymphocytes was irradiated by cesium 137 at 3000 Rads using a Gamma radiometer (Gammacell 3000) to make the cells lose their proliferation ability. After washed by RPMI-1640 for 2 times, the cell concentration was adjusted to 5×10^6/ml.
# Preparation of responder cells: C57BL/6 mouse spleen lymphocytes were used as the responder cells, and the cell concentration was 5×10^6/ml.
# Mixed lymphocyte culture: 50 μl cell suspension of C57BL/6 mouse spleen lymphocytes was inoculated on a 96-well plate, and 50 μl cell suspension of BALB/C mouse spleen lymphocytes treated by cesium 137 was added therein, followed by addition of 50 μl compound at different concentrations. The total volume for each well was 200 μl. If the total volume was less than 200 μl, it was supplemented with RMPI-1640 medium. The tests were divided into 3 groups, i.e., BALB/C mouse group, C57BL/6 mouse group and BALB/C and C57BL/6 mice mixed culture group. The test was carried out in triplicate wells for each concentration, and included control wells without the compound, with only the stimulator cells and with only the responder cells. The 96-well plate was incubated in an incubator at 37° C. with 5% CO2 for 3 to 5 days. 8 hours before the end of incubation, 25 μl of ^3H-thymidine (10 μCi/ml) was added in each well. After the incubation was completed, cells were harvested by a cell harvester on a glass fiber film. After addition of a scintillation fluid, the amount of ^3H-TdR incorporated in cell DNA was determined by a Beta cell counter (MicroBeta Trilux, PerkinElmer), and the cell proliferation was represented as a cpm value.
# [5] = tested on: human osteosarcoma U2SO xenograft; assay: U2SO xenograft on nude mice; details: 1-5/3 w; for TV (mm^3) d0: baseline
# [6] = tested on: human prostate cancer PC-3 xenograft; assay: PC-3 xenograft on nude mice; details: 1-5 × 3.5 w; for TV (mm3) d0: baseline
# [7] = Table 10, read-out: Cytotoxicity CC50
smiles,measurement,setting,value
CO[C@H]1C[C@@H]2CC[C@@H](C)[C@@](O)(O2)C(=O)C(=O)N2CCCC[C@H]2C(=O)O[C@H]([C@H](C)C[C@@H]2CC[C@@H](OC(=O)OCC(O)CO)[C@H](OC)C2)CC(=O)[C@H](C)/C=C(\C)[C@@H](O)[C@@H](OC)C(=O)[C@H](C)C[C@H](C)/C=C/C=C/C=C/1C (stereo partly shown) [Y31],Safety Index CC50/IC50,[1]; Table 10,1860.0
same,CC50,[1]; [7],93 µM
same,CC50 at 48 h,[2],36.9 µM
same,IC50,"[3]; LPS, 48 hours, 3H-TdR",0.0978 µM
same,CPM Mean value,[4]; 0.1342 nM,1338
same,CPM Mean value,[4]; 0.3355 nM,1296
same,CPM Mean value,[4]; 0.8389 nM,1202
same,CPM Mean value,[4]; 2.0972 nM,1137
same,CPM Mean value,[4]; 5.2429 nM,1131
same,CPM Mean value,[4]; 13.107 nM,1137
same,CPM Mean value,[4]; 32.768 nM,1189
same,CPM Mean value,[4]; 81.9 nM,1314
same,CPM Mean value,[4]; 204.8 nM,1090
same,CPM Mean value,[4]; 512 nM,1436
same,CPM Mean value,[4]; 1280 nM,1209
same,CPM Mean value,[4]; 3200 nM,1132
same,CPM Mean value,[4]; 8000 nM,1190
same,CPM Mean value,[4]; 20000 nM,815
same,inhibition at 0.0001342 µM,[4]; 0.1342 nM,82%
same,inhibition at 0.0003355 µM,[4]; 0.3355 nM,82%
same,inhibition at 0.0008389 µM,[4]; 0.8389 nM,84%
same,inhibition at 0.0020972 µM,[4]; 2.0972 nM,85%
same,inhibition at 0.0052429 µM,[4]; 5.2429 nM,85%
same,inhibition at 0.013107 µM,[4]; 13.107 nM,85%
same,inhibition at 0.032768 µM,[4]; 32.768 nM,84%
same,inhibition at 0.0819 µM,[4]; 81.9 nM,82%
same,inhibition at 0.2048 µM,[4]; 204.8 nM,85%
same,inhibition at 0.512 µM,[4]; 512 nM,80%
same,inhibition at 1.28 µM,[4]; 1280 nM,84%
same,inhibition at 3.2 µM,[4]; 3200 nM,85%
same,inhibition at 8 µM,[4]; 8000 nM,84%
same,inhibition at 20 µM,[4]; 20000 nM,89%
same,Body Weight (g) end,"[5]; Table 5, oral 2.5 mg/kg",20.2 g
same,Body Weight (g) start,"[5]; Table 5, oral 2.5 mg/kg",18.5 g
same,RTV,"[5]; Table 5, oral 2.5 mg/kg",12 ± 6.7
same,T/C (%),"[5]; Table 5, oral 2.5 mg/kg",49.0%
same,TV (mm^3) d21,"[5]; Table 5, oral 2.5 mg/kg",975 ± 235 mm^3
same,TV (mm^3) d0,"[5]; Table 5, oral 2.5 mg/kg",90 ± 27 mm^3
same,Body Weight (g) end,"[5]; Table 5, oral 5 mg/kg",19.5 g
same,Body Weight (g) start,"[5]; Table 5, oral 5 mg/kg",17.7 g
same,RTV,"[5]; Table 5, oral 5 mg/kg",11 ± 7.2
same,T/C (%),"[5]; Table 5, oral 5 mg/kg",44.0%
same,TV (mm^3) d21,"[5]; Table 5, oral 5 mg/kg",967 ± 234 mm^3
same,TV (mm^3) d0,"[5]; Table 5, oral 5 mg/kg",89 ± 19 mm^3
CO[C@H]1C[C@@H]2CC[C@@H](C)[C@@](O)(O2)C(=O)C(=O)N2CCCC[C@H]2C(=O)O[C@H]([C@H](C)C[C@@H]2CC[C@@H](O)[C@H](OC)C2)CC(=O)[C@H](C)/C=C(\C)[C@@H](O)[C@@H](OC)C(=O)[C@H](C)C[C@H](C)/C=C/C=C/C=C/1C [Rapamycin],CC50,"[1]; Table 10, value beyond the >100 μM bound, read-out: Cytotoxicity CC50, value in brackets",3600 µM
same,CC50,[1]; [7],> 100 µM
same,CC50 at 48 h,[2],45.5 µM
same,IC50,[3],0.0488 µM
same,CPM Mean value,[4]; 0.1342 nM,4788
same,CPM Mean value,[4]; 0.3355 nM,3157
same,CPM Mean value,[4]; 0.8389 nM,1955
same,CPM Mean value,[4]; 2.0972 nM,1638
same,CPM Mean value,[4]; 32.768 nM,956
same,CPM Mean value,[4]; 81.9 nM,1012
same,CPM Mean value,[4]; 204.8 nM,848
same,CPM Mean value,[4]; 512 nM,1068
same,CPM Mean value,[4]; 1280 nM,967
same,CPM Mean value,[4]; 3200 nM,840
same,CPM Mean value,[4]; 8000 nM,780
same,CPM Mean value,[4]; 20000 nM,362
same,inhibition at 0.0001342 µM,[4]; 0.1342 nM,35%
same,inhibition at 0.0003355 µM,[4]; 0.3355 nM,57%
same,inhibition at 0.0008389 µM,[4]; 0.8389 nM,73%
same,inhibition at 0.0020972 µM,[4]; 2.0972 nM,78%
same,inhibition at 0.0052429 µM,[4]; 5.2429 nM,83%
same,inhibition at 0.013107 µM,[4]; 13.107 nM,83%
same,inhibition at 0.032768 µM,[4]; 32.768 nM,87%
same,inhibition at 0.0819 µM,[4]; 81.9 nM,86%
same,inhibition at 0.2048 µM,[4]; 204.8 nM,88%
same,inhibition at 0.512 µM,[4]; 512 nM,85%
same,inhibition at 1.28 µM,[4]; 1280 nM,87%
same,inhibition at 3.2 µM,[4]; 3200 nM,89%
same,inhibition at 8 µM,[4]; 8000 nM,89%
same,inhibition at 20 µM,[4]; 20000 nM,95%
same,Body Weight (g) end,"[6]; Table 3, 2.5 mg/kg p.o",21.8 g
same,Body Weight (g) start,"[6]; Table 3, 2.5 mg/kg p.o",19.8 g
same,RTV,"[6]; Table 3, 2.5 mg/kg p.o",3.03 ± 1.5
same,T/C (%),"[6]; Table 3, 2.5 mg/kg p.o",46.5%
same,TV (mm3) d21,"[6]; Table 3, 2.5 mg/kg p.o",277 ± 98 mm3
same,TV (mm3) d0,"[6]; Table 3, 2.5 mg/kg p.o",100 ± 39 mm3
same,Body Weight (g) end,"[6]; Table 3, 5 mg/kg p.o",22.2 g
same,Body Weight (g) start,"[6]; Table 3, 5 mg/kg p.o",22.2 g
same,RTV,"[6]; Table 3, 5 mg/kg p.o",2.0 ± 1.2
same,T/C (%),"[6]; Table 3, 5 mg/kg p.o",30.9%
same,TV (mm3) d21,"[6]; Table 3, 5 mg/kg p.o",170 ± 88 mm3
same,TV (mm3) d0,"[6]; Table 3, 5 mg/kg p.o",96 ± 38 mm3
same,Body Weight (g) end,"[5]; Table 5, oral 2.5 mg/kg",18.5 g
same,Body Weight (g) start,"[5]; Table 5, oral 2.5 mg/kg",19.7 g
same,RTV,"[5]; Table 5, oral 2.5 mg/kg",15 ± 5.1
same,T/C (%),"[5]; Table 5, oral 2.5 mg/kg",60.0%
same,TV (mm^3) d21,"[5]; Table 5, oral 2.5 mg/kg",1230 ± 344 mm^3
same,TV (mm^3) d0,"[5]; Table 5, oral 2.5 mg/kg",85 ± 24 mm^3
same,Body Weight (g) end,"[5]; Table 5, oral 5 mg/kg",17.5 g
same,Body Weight (g) start,"[5]; Table 5, oral 5 mg/kg",19.5 g
same,RTV,"[5]; Table 5, oral 5 mg/kg",15 ± 3.4
same,T/C (%),"[5]; Table 5, oral 5 mg/kg",59.0%
same,TV (mm^3) d0,"[5]; Table 5, oral 5 mg/kg",86 ± 20 mm^3
